Results on 2 molecules are retold here after US8257478B2, “Use of marine fungus originated compounds as antifouling agents” (The Hong Kong University of Science and Technology, priority 2004, dated 2012).

Values after ≈ are worked out from the molar mass of the structure shown. Like-named read-outs stand apart in the source and are kept apart here.

For data set [1], the system named is Ruegeria sp. In words: agar disc diffusion assay, inhibition zone. The format is cell-based. Particulars: 50 μg/disc, 30° C., 24 h; read-out: Inhibition Zone Width. The method, then: (§1) Antibacterial activity was tested against bacteria using an agar disc diffusion assay method. Sterile paper discs (6 mm i.d.) impregnated with the substance under test at a concentration of 50 μg disc^−1 were applied onto the surface of an agar plate (plastic Petri dish) inoculated with one strain with sterile forceps and gently pressed down to ensure good contact with the surface. Blank discs treated with the same volume of DMSO were added. A control disc, containing streptomycin was used. After the application of discs, the plates were incubated at 30° C. for 24 h, and then the size of the inhibition zone was measured.
(In agar diffusion tests the substance spreads into inoculated agar from a disc or well.)

For data set [2], the system named is Staphylococcus aureus. As to the kind of experiment: agar disc diffusion assay, inhibition zone. In kind it is cell-based. The settings on record: 50 μg/disc, 30° C., 24 h, read-out: Inhibition Zone Width. The method, then: as §1
Data set [3] concerns Balanus amphitrite larvae. In words: in vivo. The method, then: (§2) The larval bioassay was conducted according to Rittschof et al. (1994), which is incorporated by reference herein in its entirety.
(§3) Toxicity of cyclo (D)-Pro-(D)-Phe was determined using 24-well polystyrene plates. Pure compound was dissolved in DMSO and added to autoclaved FSW to form different concentrations. Competent Balanus amphitrites larvae (10±2 individuals) were added to each well with 1 ml testing solution in 5 replicates. The wells containing FSW served as the control. The 24-well plates were incubated at 30° C. for 24 h. The percent mortality was determined by counting the number of dead larvae under a dissecting microscope.
(§4) The assay was conducted according to Rittschof et al. (1994). Data plotted are means+SD of five replicates.

A short description of data set [4]: in vivo. Particulars: Balanus amphitrite (barnacle) larvae, in vivo. The method, then:
as §2, §3, §4

A short description of data set [5]: solubility in organic solvents. The format is physicochemical. Particulars: at 25° C. in methanol, ethanol, propanol, butanol.
In data set [6] the test system is Pseudoalteromonas piscida. In words: agar disc diffusion assay, inhibition zone. In kind it is cell-based. Particulars: 50 μg/disc, 30° C., 24 h, read-out: Inhibition Zone Width. The method, then:
as §1
as §1, with “using” for “using an”, “assay.” for “assay method.”, “disc” for “disc,”, “h. The” for “h, and then the”, “measured. The results are presented in Table 8 and Table 9 for Cyclo (D)-Pro-(D)-Phe and b3-methyl-N-(2-phenylethyl)butanamide, respectively.” for “measured.”

For data set [7], the system named is Vibrio harveyi. In words: agar disc diffusion assay, inhibition zone. In kind it is cell-based. The settings on record: 50 μg/disc, 30° C., 24 h, read-out: Inhibition Zone Width. The method, then: as §1
as §1, with “using” for “using an”, “assay.” for “assay method.”, “disc” for “disc,”, “h. The” for “h, and then the”, “measured. The results are presented in Table 8 and Table 9 for Cyclo (D)-Pro-(D)-Phe and b3-methyl-N-(2-phenylethyl)butanamide, respectively.” for “measured.”

For data set [8], the system named is Moraxella phenylpyruvica. In words: agar disc diffusion assay, inhibition zone. The format is cell-based. Particulars: Psychrobacter phenylpyruvicus; 50 μg/disc, 30° C., 24 h; read-out: Inhibition Zone Width. The protocol:
as §1
as §1, with “using” for “using an”, “assay.” for “assay method.”, “disc” for “disc,”, “h. The” for “h, and then the”, “measured. The results are presented in Table 8 and Table 9 for Cyclo (D)-Pro-(D)-Phe and b3-methyl-N-(2-phenylethyl)butanamide, respectively.” for “measured.”

Data set [9] concerns Vibrio fluvialis. As to the kind of experiment: agar disc diffusion assay, inhibition zone. In kind it is cell-based. The settings on record: 50 μg/disc, 30° C., 24 h, read-out: Inhibition Zone Width. The protocol: as §1
as §1, with “using” for “using an”, “assay.” for “assay method.”, “disc” for “disc,”, “h. The” for “h, and then the”, “measured. The results are presented in Table 8 and Table 9 for Cyclo (D)-Pro-(D)-Phe and b3-methyl-N-(2-phenylethyl)butanamide, respectively.” for “measured.”

For data set [10], the system named is Micrococcus luteus. In words: agar disc diffusion assay, inhibition zone. Particulars: 50 μg/disc, 30° C., 24 h, read-out: Inhibition Zone Width. The format is cell-based. The method, then: as §1
as §1, with “using” for “using an”, “assay.” for “assay method.”, “disc” for “disc,”, “h. The” for “h, and then the”, “measured. The results are presented in Table 8 and Table 9 for Cyclo (D)-Pro-(D)-Phe and b3-methyl-N-(2-phenylethyl)butanamide, respectively.” for “measured.”

Data set [11] concerns Staphylococcus haemolyticus. As to the kind of experiment: agar disc diffusion assay, inhibition zone. The settings on record: 50 μg/disc, 30° C., 24 h, read-out: Inhibition Zone Width. In kind it is cell-based. The protocol:
as §1
as §1, with “using” for “using an”, “assay.” for “assay method.”, “disc” for “disc,”, “h. The” for “h, and then the”, “measured. The results are presented in Table 8 and Table 9 for Cyclo (D)-Pro-(D)-Phe and b3-methyl-N-(2-phenylethyl)butanamide, respectively.” for “measured.”

Data set [12] relates to Vibrio sp. (NAP-4). As to the kind of experiment: agar disc diffusion assay, inhibition zone. The format is cell-based. The settings on record: 24 h, read-out: Inhibition Zone Width. The method, then: as §1
as §1, with “using” for “using an”, “assay.” for “assay method.”, “disc” for “disc,”, “h. The” for “h, and then the”, “measured. The results are presented in Table 8 and Table 9 for Cyclo (D)-Pro-(D)-Phe and b3-methyl-N-(2-phenylethyl)butanamide, respectively.” for “measured.”

Data set [13] deals with Pseudoalteromonas sp. As to the kind of experiment: agar disc diffusion assay, inhibition zone. The format is cell-based. Particulars: 50 μg/disc, 30° C., 24 h, read-out: Inhibition Zone Width. The method, then: as §1
as §1, with “using” for “using an”, “assay.” for “assay method.”, “disc” for “disc,”, “h. The” for “h, and then the”, “measured. The results are presented in Table 8 and Table 9 for Cyclo (D)-Pro-(D)-Phe and b3-methyl-N-(2-phenylethyl)butanamide, respectively.” for “measured.”

Data set [14] relates to Shewanella algae. In words: agar disc diffusion assay, inhibition zone. In kind it is cell-based. Particulars: 50 μg/disc, 30° C., 24 h, read-out: Inhibition Zone Width. The protocol:
as §1
as §1, with “using” for “using an”, “assay.” for “assay method.”, “disc” for “disc,”, “h. The” for “h, and then the”, “measured. The results are presented in Table 8 and Table 9 for Cyclo (D)-Pro-(D)-Phe and b3-methyl-N-(2-phenylethyl)butanamide, respectively.” for “measured.”

For data set [15], the system named is barnacle Balanus amphitrite larvae. In words: anti-larval settlement bioassay in 24-well plates. The format is in vivo. The settings on record: for EC50: Amphibalanus amphitrite, read-out: EC50 (anti-larval settlement). The method, then:
Anti-larval settlement activity of 3-chloro-2,5-dihydroxy benzyl alcohol (compound 1) was conducted using 24-well polystyrene plates. Pure compound was dissolved in DMSO and added to autoclaved FSW at different concentrations. Competent Balanus amphitrites larvae (10±2 individuals) were added to each well with 1 ml testing solution in 5 replicates, and wells containing FSW (filtered seawater) served as control. The 24-well plates were incubated at 30° C. for 24 h. The percent settlement was determined by counting the number of settled larvae under a dissecting microscope. In all bioassays, FSW served as the control. Statistical calculations were performed with the SPSS (Statistical Package for the Social Sciences) software package, Version 11.
as §2, §4
For determining anti-larval settlement activity, adult Balanus amphitrile (Darwin) were collected from the intertidal zone in Hong Kong (22°19′N, 114°16′E). Nauplii obtained from several adults were mass-reared to cyprid stage at a density of 2 larvae ml^−1 in 0.22-μm-filtered seawater with 30 ppt salinity (FSW) using Chaetoceros gracilis Schutt as food and a rearing temperature of 28° C. Newly transformed cyprids were used for the experiment.
Anti-larval settlement activity of succinic acid against B. amphitrite was determined using 24-well polystyrene plates. Pure compound was dissolved in autoclaved FSW ranged from 60-140 μg ml^−1 for B. amphitrite. Competent larvae (15±2 individuals) were added to each well with 1 ml testing solution in 5 replicates, and wells containing FSW served as the control. The 24-well plates were incubated at 30° C. for 24 h. The percent larval settlement was determined by counting the number of settled individuals under a dissecting microscope and expressed as a proportion of the total number of larvae in the well.

Data set [16] relates to Loktanella hongkongensis. In words: agar disc diffusion assay, inhibition zone. In kind it is cell-based. Particulars: Limimaricola hongkongensis, 24 h, read-out: Inhibition Zone Width. The method, then:
as §1, with “using” for “using an”, “assay.” for “assay method.”, “disc” for “disc,”, “h. The” for “h, and then the”, “measured. The results are presented in Table 8 and Table 9 for Cyclo (D)-Pro-(D)-Phe and b3-methyl-N-(2-phenylethyl)butanamide, respectively.” for “measured.”

In data set [17] the test system is Vibrio vulnificus. In words: agar disc diffusion assay, inhibition zone. Particulars: 24 h, read-out: Inhibition Zone Width. In kind it is cell-based. The protocol:
as §1, with “using” for “using an”, “assay.” for “assay method.”, “disc” for “disc,”, “h. The” for “h, and then the”, “measured. The results are presented in Table 8 and Table 9 for Cyclo (D)-Pro-(D)-Phe and b3-methyl-N-(2-phenylethyl)butanamide, respectively.” for “measured.”

Data set [18] deals with Vibrio alginolyticus. As to the kind of experiment: agar disc diffusion assay, inhibition zone. In kind it is cell-based. Particulars: 24 h, read-out: Inhibition Zone Width. The method, then:
as §1, with “using” for “using an”, “assay.” for “assay method.”, “disc” for “disc,”, “h. The” for “h, and then the”, “measured. The results are presented in Table 8 and Table 9 for Cyclo (D)-Pro-(D)-Phe and b3-methyl-N-(2-phenylethyl)butanamide, respectively.” for “measured.”

The test system of data set [19] is Vibrio halioticoli. In words: agar disc diffusion assay, inhibition zone. The format is cell-based. The settings on record: 24 h, read-out: Inhibition Zone Width. The method, then: as §1, with “using” for “using an”, “assay.” for “assay method.”, “disc” for “disc,”, “h. The” for “h, and then the”, “measured. The results are presented in Table 8 and Table 9 for Cyclo (D)-Pro-(D)-Phe and b3-methyl-N-(2-phenylethyl)butanamide, respectively.” for “measured.”

Data set [20] deals with Rhodovulum sp. In words: agar disc diffusion assay, inhibition zone. In kind it is cell-based. The settings on record: 24 h, read-out: Inhibition Zone Width. The protocol: as §1, with “using” for “using an”, “assay.” for “assay method.”, “disc” for “disc,”, “h. The” for “h, and then the”, “measured. The results are presented in Table 8 and Table 9 for Cyclo (D)-Pro-(D)-Phe and b3-methyl-N-(2-phenylethyl)butanamide, respectively.” for “measured.”

In data set [21] the test system is Vibrio furnissii. In words: agar disc diffusion assay, inhibition zone. The format is cell-based. The settings on record: 24 h, read-out: Inhibition Zone Width. The method, then:
as §1, with “using” for “using an”, “assay.” for “assay method.”, “disc” for “disc,”, “h. The” for “h, and then the”, “measured. The results are presented in Table 8 and Table 9 for Cyclo (D)-Pro-(D)-Phe and b3-methyl-N-(2-phenylethyl)butanamide, respectively.” for “measured.”

As for `OCc1cc(O)cc(Cl)c1O` [Compound 1, 3-chloro-2,5-dihydroxy benzyl alcohol], the zone of inhibition at 50 µg/disc in [1] was 3.5 mm; in data set [2], 5.5 mm; in [6], 5 mm; in data set [7], 3.5 mm; in data set [8], 5.5 mm; in [9], 5.5 mm. Besides, the zone of inhibition at 50 µg/disc in data set [10] came out at 6 mm; in data set [11] it was 6 mm; in data set [12] (50 μg/disc, 30° C.), 4 mm; in data set [13], 5.5 mm; in [14] it was 4.5 mm. For the same molecule, the “therapeutic ratio LC50/EC50” value in data set [3] (Balanus amphitrite, in vivo, 24 h) was determined as 76.2. This molecule displayed an LC50 at 24 h in data set [4] of 267 µg/mL (≈ 1530 µM). For the same molecule, in [5] (ethyl acetate, acetone and acetonitrile), the solubility result is listed as “soluble”. Further, in data set [15] (Balanus amphitrite larvae), the EC50 stood at 3.5 µg/mL (≈ 20 µM). The “concentration at which compound started showing anti-settlement effects” value in data set [15] (as low as) came to 0.1 µg/mL. The barnacle larval settlement entry in [15] (at 5 μg ml^−1, 24 h, 60% in the control) is on record as “about 10%”.

On to `CC(C)CC(=O)NCCc1ccccc1` [Compound 3, 3-methyl-N-(2-phenylethyl) butanamide], for which the “therapeutic ratio LC50/EC50” value in data set [3] (Balanus amphitrite larvae) was determined as 2.23. Besides, the toxic symptoms result in data set [3] (at the concentration of 50 μg ml^−1, 24 h) is on record as “did not induce any toxic symptoms”. For the same molecule, the LC50 at 24 h in data set [4] stood at 81.4 µg/mL (≈ 396 µM). In addition, in data set [5] (ethyl acetate acetone, chloroform, dichloromethane and acetonitrile), the solubility result is “soluble”. Moreover, the zone of inhibition at 50 µg/disc was 1.5 mm in data set [6]; 0 mm in [7]; 0 mm in data set [8]; 0 mm in data set [9]; 3.3 ± 0.6 mm in data set [10]; 0.5 mm in [11]. Further, the zone of inhibition at 50 µg/disc stood at 0 mm in data set [12]; 0 mm in data set [13]; 1.3 ± 0.6 mm in data set [14]; 0.5 mm in data set [16]; 1.2 ± 0.7 mm in data set [17]; 1.7 ± 0.6 mm in data set [18]. The zone of inhibition at 50 µg/disc in data set [19] was determined as 0 mm; in data set [20], 3 ± 0.5 mm; in data set [21] it was 0 mm. Further, the half-maximal effective concentration (EC50) in [15] worked out at 36.5 µg/mL (≈ 178 µM).

For orientation: LC50 means the concentration lethal to half of the exposed cells or organisms. Low readings indicate greater toxicity, high ones lower toxicity. For orientation: EC50 means the concentration at which the effect is half-maximal.
